Patent US8609847B2, “Dihydroquinolinone derivatives” (Taisho Pharmaceutical Co., Ltd, priority 2009, dated 2013)
pIC50: −log10 of the molar value.

Legend:
[1] = target: T1, human H3 receptor (Homo sapiens, UniProt Q9Y5N1); assay: H3 Receptor Binding Test; details: 50% inhibition of R(−)-α-methyl[3H]histamine (1 nM) binding; membrane preparation of human H3 receptor-expressing CHO-K1 cells
T1 construct: purchased Perkin Elmer ES-392-M400UA; host or cells: CHO-K1 cells (recombinant expression), membrane preparation
Experimental: A membrane preparation of human H3 receptor-expressing CHO-K1 cells (Perkin Elmer, ES-392-M400UA, 15 μg protein/200 μl), R(−)-α-methyl[^3H]histamine (Amersham, TRK-1017, specific activity: 1.74 TBq/mmol, 1 nM) and a test drug were reacted at room temperature for 1 hour. After completion of the reaction, the reaction mixture was subjected to suction filtration through a 0.3% polyethyleneimine-treated glass filter (GF/C). The glass filter was washed five times with 50 mM Tris-HCl washing solution (pH 7.4) containing 5 mM EDTA. After washing, the glass filter was dried and a scintillator was added thereto, followed by measurement of radioactivity on the filter using a liquid scintillation counter.
Binding of R(−)-α-methyl[^3H]histamine in the presence of 10 μM R(−)-α-methylhistamine was defined as non-specific binding, and the difference between total binding and non-specific binding of R(−)-α-methyl[^3H]histamine was defined as specific binding of R(−)-α-methyl[^3H]histamine. A fixed concentration (1 nM) of R(−)-α-methyl[^3H]histamine was reacted under the above conditions with each test drug at various concentrations to obtain an inhibition curve. The inhibition curve was used to determine the concentration (IC50) of each test drug required for 50% inhibition of R(−)-α-methyl[^3H]histamine binding.

[2] = target: T1, human H3 receptor; assay: [35S]GTP-γ-S Binding Test; type: biochemical; details: 50% inhibition of [35S]GTP-γ-S (0.2 nM) binding in presence of 10 nM R(−)-α-methylhistamine; human H3 receptor membrane preparation
Experimental: The same human H3 receptor membrane preparation as used in Test Example 1 (7.5 μg protein/200 μl), 3 μM GDP, 10 nM R(−)-α-methylhistamine and a test compound were reacted at 30° C. for 20 minutes. After completion of the reaction, [^35S]GTP-γ-S (0.2 nM) was added and reacted for an additional 30 minutes. After completion of the reaction, the reaction mixture was subjected to suction filtration through a glass filter (GF/C). The glass filter was washed three times with 20 mM HEPES washing solution (pH 7.4) containing 100 mM sodium chloride and 3 mM magnesium chloride. After washing, the glass filter was dried and a scintillator was added thereto, followed by measurement of radioactivity on the filter using a liquid scintillation counter. Binding of [^35S]GTP-γ-S in the absence of R(−)-α-methylhistamine was defined as non-specific binding, and the difference between total binding in the presence of R(−)-α-methylhistamine and non-specific binding was defined as specific binding of [^35S]GTP-γ-S. Fixed concentrations of [^35S]GTP-γ-S (0.2 nM) and R(−)-α-methylhistamine (10 nM) were reacted under the above conditions with each test drug at various concentrations to obtain an inhibition curve. The inhibition curve was used to determine the concentration (IC50) of each test drug required for 50% inhibition of [^35S]GTP-γ-S binding.

T1 sequence (Q9Y5N1 whole entry): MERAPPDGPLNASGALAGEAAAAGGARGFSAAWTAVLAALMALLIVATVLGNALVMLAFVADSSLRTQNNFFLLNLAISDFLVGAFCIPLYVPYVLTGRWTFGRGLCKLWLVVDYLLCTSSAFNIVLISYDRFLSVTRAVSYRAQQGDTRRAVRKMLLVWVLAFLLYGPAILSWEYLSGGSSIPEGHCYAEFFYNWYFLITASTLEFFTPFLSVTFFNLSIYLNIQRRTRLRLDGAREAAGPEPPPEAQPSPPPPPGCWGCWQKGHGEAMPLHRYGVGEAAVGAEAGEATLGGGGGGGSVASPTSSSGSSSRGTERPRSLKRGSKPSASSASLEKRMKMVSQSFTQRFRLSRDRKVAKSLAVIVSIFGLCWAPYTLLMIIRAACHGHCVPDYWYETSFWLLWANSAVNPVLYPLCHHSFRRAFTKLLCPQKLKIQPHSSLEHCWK

## N#Cc1ccc(N2C(=O)CCc3cc(OC4CCN(C5CCC5)CC4)ccc32)cc1 [Compound No. 73, 4-{6-[(1-cyclobutylpiperidin-4-yl)oxy]-2-oxo-3,4-dihydroquinolin-1(2H)-yl}benzonitrile]
[1]
  pIC50: 9.00
[2]
  pIC50: 9.64

## C[C@@H]1CCCN1CCCOc1ccc2c(c1)CCC(=O)N2c1ccc(C(=O)N(C)C)cc1 [Compound No. 13, N,N-dimethyl-4-[6-{3-[(2R)-2-methylpyrrolidin-1-yl]propoxy}-2-oxo-3,4-dihydroquinolin-1(2H)-yl]benzamide]
[1]
  pIC50: 8.08
[2]
  pIC50: 9.21

## Cl.O=C1CCc2cc(OC3CCN(C4CCC4)CC3)ccc2N1c1ccc(F)cc1
other
  melting point: > 250 °C

## O=C1CCc2cc(OC3CCN(C4CCC4)CC3)ccc2N1c1ccccc1 [Compound No. 72, 6-[(1-cyclobutylpiperidin-4-yl)oxy]-1-phenyl-3,4-dihydroquinolin-2(1H)-one]
[1]
  pIC50: 9.22
[2]
  pIC50: 9.80

## O=C1CCc2cc(OC3CCN(C4CCC4)CC3)ccc2N1c1cccc(F)c1 [Compound No. 69, 6-[(1-cyclobutylpiperidin-4-yl)oxy]-1-(3-fluorophenyl)-3,4-dihydroquinolin-2(1H)-one]
[1]
  pIC50: 9.19
[2]
  pIC50: 9.70

## C[C@@H]1CCCN1CCCOc1ccc2c(c1)CCC(=O)N2c1ccc(F)cc1 [Compound No. 6, 1-(4-fluorophenyl)-6-{3-[(2R)-2-methylpyrrolidin-1-yl]propoxy}-3,4-dihydroquinolin-2(1H)-one]
[1]
  pIC50: 8.96
[2]
  pIC50: 9.55

## C[C@@H]1CCCN1CCCOc1ccc2c(c1)CCC(=O)N2c1ccc(CN(C)C)cc1 [Compound No. 12, 1-{4-[(dimethylamino)methyl]phenyl}-6-{3-[(2R)-2-methylpyrrolidin-1-yl]propoxy}-3,4-dihydroquinolin-2(1H)-one]
[1]
  pIC50: 9.17
[2]
  pIC50: 9.68

## O=C1CCc2cc(OC3CCN(C4CCC4)CC3)ccc2N1c1ccc(F)cc1 [Compound No. 60, 6-[(1-cyclobutylpiperidin-4-yl)oxy]-1-(4-fluorophenyl)-3,4-dihydroquinolin-2(1H)-one]
[1]
  pIC50: 9.10
[2]
  pIC50: 9.64

## O=C1CCc2cc(OC3CCN(C4CCC4)CC3)ccc2N1c1cncc(F)c1 [Compound No. 71, 6-[(1-cyclobutylpiperidin-4-yl)oxy]-1-(5-fluoropyridin-3-yl)-3,4-dihydroquinolin-2(1H)-one]
[1]
  pIC50: 8.85
[2]
  pIC50: 9.59

## O=C1CCc2cc(OC3CCN(C4CCC4)CC3)ccc2N1c1cnc2ccccc2c1 [Compound No. 58, 6-[(1-cyclobutylpiperidin-4-yl)oxy]-3,4-dihydro-2H-1,3′-biquinolin-2-one]
[1]
  pIC50: 8.80
[2]
  pIC50: 9.40

## COc1ccc(N2C(=O)CCc3cc(OCCCN4CCC[C@H]4C)ccc32)c(OC)c1 [Compound No. 25, 1-(2,4-dimethoxyphenyl)-6-{3-[(2R)-2-methylpyrrolidin-1-yl]propoxy}-3,4-dihydroquinolin-2(1H)-one]
[1]
  pIC50: 8.70

## CC(C)(C)N1CCC(Oc2ccc3c(c2)CCC(=O)N3c2cncc(F)c2)CC1 [Compound No. 64, 6-[(1-tert-butylpiperidin-4-yl)oxy]-1-(5-fluoropyridin-3-yl)-3,4-dihydroquinolin-2(1H)-one]
[1]
  pIC50: 8.28

## O=C1CCc2cc(OCCCN3CCCCC3)ccc2N1c1ccc(F)cc1 [Compound No. 82, 1-(4-fluorophenyl)-6-[3-(piperidin-1-yl)propoxy]-3,4-dihydroquinolin-2(1H)-one]
[1]
  pIC50: 8.04

## C[C@@H]1CCCN1CCCOc1ccc2c(c1)CCC(=O)N2c1ccc(Cl)cc1F [Compound No. 30, 1-(4-chloro-2-fluorophenyl)-6-{3-[(2R)-2-methylpyrrolidin-1-yl]propoxy}-3,4-dihydroquinolin-2(1H)-one]
[1]
  pIC50: 8.96

## C[C@@H]1CCCN1CCCOc1ccc2c(c1)CCC(=O)N2c1ccc(F)cc1F [Compound No. 29, 1-(2,4-difluorophenyl)-6-{3-[(2R)-2-methylpyrrolidin-1-yl]propoxy}-3,4-dihydroquinolin-2(1H)-one]
[1]
  pIC50: 9.00

## Cc1ccc(Oc2ccc(N3C(=O)CCc4cc(OCCCN5CCC[C@H]5C)ccc43)cc2)nn1 [Compound No. 20, 1-{4-[(6-methylpyridazin-3-yl)oxy]phenyl}-6-{3-[(2R)-2-methylpyrrolidin-1-yl]propoxy}-3,4-dihydroquinolin-2(1H)-one]
[1]
  pIC50: 9.00

## C[C@@H]1CCCN1CCCOc1ccc2c(c1)CCC(=O)N2c1ccc(C#N)cn1 [Compound No. 46, 6-[6-{3-[(2R)-2-methylpyrrolidin-1-yl]propoxy}-2-oxo-3,4-dihydroquinolin-1(2H)-yl]pyridine-3-carbonitrile]
[1]
  pIC50: 7.66

## C[C@@H]1CCCN1CCCOc1ccc2c(c1)CCC(=O)N2c1ccccc1 [Compound No. 2, 6-{3-[(2R)-2-methylpyrrolidin-1-yl]propoxy}-1-phenyl-3,4-dihydroquinolin-2(1H)-one]
[1]
  pIC50: 9.10
